These results are taken from patent US5792920A, “Plants with altered ability to synthesize starch and process for obtaining them” (Imperial Chemical Industries PLC, priority 1988, dated 1998).

Like-named read-outs stand apart in the source and are kept apart here.

The target of data set [1] is T1, wheat leaf ADP-glucose pyrophosphorylase (Triticum aestivum, UniProt P12298).
T1 sequence (P12298 1-301): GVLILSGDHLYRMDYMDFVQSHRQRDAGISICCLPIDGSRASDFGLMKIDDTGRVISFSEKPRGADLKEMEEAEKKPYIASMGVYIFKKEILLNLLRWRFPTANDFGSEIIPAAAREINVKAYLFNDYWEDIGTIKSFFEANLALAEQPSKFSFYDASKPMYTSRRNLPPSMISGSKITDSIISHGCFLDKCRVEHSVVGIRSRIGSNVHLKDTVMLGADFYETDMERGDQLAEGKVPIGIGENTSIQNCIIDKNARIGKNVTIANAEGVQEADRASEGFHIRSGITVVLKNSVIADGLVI
T1 sequence (P30523 2-473 partner): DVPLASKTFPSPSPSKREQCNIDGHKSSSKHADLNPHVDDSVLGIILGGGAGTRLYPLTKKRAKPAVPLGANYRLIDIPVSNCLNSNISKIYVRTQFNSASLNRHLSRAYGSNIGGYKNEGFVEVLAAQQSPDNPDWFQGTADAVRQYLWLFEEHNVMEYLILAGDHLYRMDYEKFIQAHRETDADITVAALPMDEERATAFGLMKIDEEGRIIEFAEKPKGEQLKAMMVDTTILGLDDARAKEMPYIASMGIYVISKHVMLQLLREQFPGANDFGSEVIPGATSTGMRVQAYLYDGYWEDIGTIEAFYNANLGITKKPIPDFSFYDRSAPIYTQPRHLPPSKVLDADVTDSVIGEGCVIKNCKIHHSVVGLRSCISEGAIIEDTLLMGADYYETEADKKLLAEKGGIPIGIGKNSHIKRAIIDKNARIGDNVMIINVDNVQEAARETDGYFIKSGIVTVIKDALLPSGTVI
Put plainly: biochemical. The settings on record: read-out: fold activation of enzyme.

Data set [2] concerns the target T2, ADP-glucose pyrophosphorylase enzyme from rice endosperm (Oryza sativa subsp. japonica, UniProt P15280+Q7G065).
T2 construct: host or cells: rice endosperm
T2 sequence (P15280 1-479 isoform P15280-2): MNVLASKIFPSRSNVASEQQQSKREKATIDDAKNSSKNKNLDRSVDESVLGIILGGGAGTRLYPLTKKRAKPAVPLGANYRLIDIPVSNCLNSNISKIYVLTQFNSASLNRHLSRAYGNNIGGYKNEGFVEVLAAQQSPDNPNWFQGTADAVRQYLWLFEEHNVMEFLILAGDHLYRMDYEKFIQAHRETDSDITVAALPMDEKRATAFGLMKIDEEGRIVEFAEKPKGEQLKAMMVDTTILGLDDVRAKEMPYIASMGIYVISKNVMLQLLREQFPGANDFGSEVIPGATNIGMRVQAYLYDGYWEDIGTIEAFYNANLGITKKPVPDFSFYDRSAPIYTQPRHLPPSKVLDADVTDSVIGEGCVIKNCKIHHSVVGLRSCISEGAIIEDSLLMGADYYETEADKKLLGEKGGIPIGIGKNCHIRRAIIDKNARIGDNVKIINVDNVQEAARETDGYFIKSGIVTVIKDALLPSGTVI
T2 sequence (Q7G065 1-518): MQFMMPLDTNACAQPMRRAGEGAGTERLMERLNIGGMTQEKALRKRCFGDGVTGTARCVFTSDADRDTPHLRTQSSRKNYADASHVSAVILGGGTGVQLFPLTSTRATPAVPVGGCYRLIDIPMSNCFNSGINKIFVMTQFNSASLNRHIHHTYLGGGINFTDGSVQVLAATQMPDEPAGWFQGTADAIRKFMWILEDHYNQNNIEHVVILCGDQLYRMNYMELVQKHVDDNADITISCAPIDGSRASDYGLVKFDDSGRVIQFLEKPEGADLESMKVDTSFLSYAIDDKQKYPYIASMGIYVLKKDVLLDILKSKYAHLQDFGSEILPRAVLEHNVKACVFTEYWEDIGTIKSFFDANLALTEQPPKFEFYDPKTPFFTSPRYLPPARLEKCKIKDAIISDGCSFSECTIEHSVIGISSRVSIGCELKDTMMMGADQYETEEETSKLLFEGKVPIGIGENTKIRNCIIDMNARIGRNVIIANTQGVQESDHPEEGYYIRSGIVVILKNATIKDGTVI
The following applies: 5 mM 3-phosphoglycerate; cited from earlier work.

The test system of data set [3] is plant leaf ADP-glucose pyrophosphorylase. The following applies: cited from earlier work; for activation in vitro: all plant leaf enzymes studied.
Data set [4] has as its target T3, wheat endosperm ADP-glucose pyrophosphorylase (Triticum aestivum, UniProt P12299+P30523).
T3 sequence (P12299 63-522): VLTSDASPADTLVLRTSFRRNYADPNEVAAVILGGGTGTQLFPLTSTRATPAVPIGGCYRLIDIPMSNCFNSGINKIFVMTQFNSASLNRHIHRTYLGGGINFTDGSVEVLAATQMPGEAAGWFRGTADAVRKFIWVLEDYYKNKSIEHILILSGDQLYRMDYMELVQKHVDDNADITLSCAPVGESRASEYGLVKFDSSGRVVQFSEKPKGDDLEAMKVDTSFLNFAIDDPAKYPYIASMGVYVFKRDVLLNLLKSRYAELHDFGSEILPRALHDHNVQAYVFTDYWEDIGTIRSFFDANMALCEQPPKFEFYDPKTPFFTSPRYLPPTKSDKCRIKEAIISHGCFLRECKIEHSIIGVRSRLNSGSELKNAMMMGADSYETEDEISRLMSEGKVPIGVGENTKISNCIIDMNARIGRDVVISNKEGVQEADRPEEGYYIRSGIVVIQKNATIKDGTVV
T3 sequence (P30523 1-473): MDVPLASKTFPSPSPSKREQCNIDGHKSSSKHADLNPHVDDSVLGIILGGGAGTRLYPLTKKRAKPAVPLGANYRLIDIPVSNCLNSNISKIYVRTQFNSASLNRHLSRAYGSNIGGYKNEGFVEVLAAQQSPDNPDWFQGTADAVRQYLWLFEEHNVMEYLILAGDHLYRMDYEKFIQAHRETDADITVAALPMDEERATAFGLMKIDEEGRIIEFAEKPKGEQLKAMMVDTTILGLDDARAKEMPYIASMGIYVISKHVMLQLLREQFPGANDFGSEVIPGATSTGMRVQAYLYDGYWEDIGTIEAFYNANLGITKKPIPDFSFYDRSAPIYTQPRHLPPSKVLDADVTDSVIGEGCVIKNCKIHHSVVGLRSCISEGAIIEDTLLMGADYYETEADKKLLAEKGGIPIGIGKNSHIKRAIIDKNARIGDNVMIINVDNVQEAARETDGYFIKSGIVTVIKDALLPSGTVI

In data set [5] the target is T3, wheat endosperm ADP-glucose pyrophosphorylase. The experiment in a line: Screen of 3-phosphoglycerate analogues for antagonism of phosphate inhibition. The class given is biochemical. Further details: Partially-purified wheat endosperm ADP-glucose pyrophosphorylase; from tissue; host or cells: wheat endosperm. The following applies: compound 3 mM, 1 mM phosphate. The procedure: There is clear evidence that the wheat endosperm enzyme has allosteric properties by virtue of being inhibited by phosphate and the inhibition being partially relieved by 3-phosphoglycerate. […] A careful analysis of various chemical that were chemically very closely related to 3-phosphoglycerate was carried out.
Seventeen compounds were tested at 3 mM concentration for their ability to antagonise the inhibition of the enzyme by 1 mM phosphate. The first series of compounds tested were phosphonate analogues of 3-phosphoglycerate. […] The second series tested were derivatives bearing structural similarity to 3-phosphoglycerate. Of these, only one compound gave weak alleviation of phosphate inhibition.

The target in data set [6] is T1, wheat leaf ADP-glucose pyrophosphorylase. The following applies: read-out: concentration required to achieve half-maximal inhibition of enzyme activity.

For `O=C(O)C(O)COP(=O)(O)O` (centres unmarked) [3-phosphoglycerate], in data set [1], the fold induction at 100 µM was 14.5 and the fold induction at 1000 µM amounted to 10. For the same molecule, the “fold activation in vitro” value in data set [2] was 1,2 fold.
For `O=C(CO)[C@@H](O)[C@H](O)[C@H](O)COP(=O)(O)O` [Fructose-6-phosphate, fructose-6-phosphate], the activation in vitro entry in data set [3] is given as “to a lesser extent”. Besides, in data set [4] (wheat endosperm enzyme), the “alleviation of phosphate inhibition” value is recorded as “weakly alleviates phosphate inhibition”.
As for `O=S(=O)(O)O` [Sulphate], in data set [5], the “antagonism of inhibition of the enzyme by phosphate” value is on record as “antagonised phosphate inhibition”.
Take `O=C(COP(=O)(O)O)[C@@H](O)[C@H](O)[C@H](O)COP(=O)(O)O` [fructose-1,6-bisphosphate]: in data set [3], the activation in vitro entry was “to a lesser extent”. Besides, the “activation of enzyme by fructose-1,6-bisphosphate” value in data set [4] (wheat endosperm enzyme) is on record as “lack of detectable activation”.
Regarding `O=P(O)(O)O` [orthophosphate], the IC50 in data set [3] (enzymes from plant leaves, in vitro, read-out: orthophosphate concentration for half-maximal inhibition of enzyme activity) was < 100 µM; in data set [4] (read-out: I0.5 value for orthophosphate, in the presence of 1 mM 3-phosphoglycerate) it was 1500 µM; in data set [4] (read-out: concentration required to achieve half-maximal inhibition of enzyme activity, wheat endosperm enzyme), 700 µM; in data set [6], 56 µM.
On to `C=C(OP(=O)(O)O)C(=O)O` [phosphoenol pyruvate], for which the activation in vitro entry in data set [3] is reported as “to a lesser extent”.
In the case of `O=C(O)CC(CP(=O)(O)O)C(=O)O` (centres unmarked) [phosphonomethyl-butanedioic acid], the “antagonism of inhibition of the enzyme by phosphate” value in data set [5] was “weak antagonism of phosphate inhibition”.
